Our source for the IC50 values is patent US20250179103A1, “6-OXODECAHYDROPYRROLO[1,2-A][1,5]DIAZOCINE AND 6-OXODECAHYDRO-4H-PYRROLO[2,1-D][1,5]THIAZOCINE DERIVATIVES AS STAT3 AND STAT6 MODULATORS FOR THE TREATMENT OF CANCER AND INFLAMMATORY CONDITIONS” (Recludix Pharma, Inc., priority 2022, published 2025).

This experiment deals with pY641-STAT6 in Peripheral Blood Mononuclear Cells (PBMC). As to the kind of experiment: MSD-pSTAT-PBMC Assay (pSTAT6, IL-4 stimulated). The experiment is classed as cell-based, Human. The following applies: Homo sapiens, compound 3 hrs, then 1 ng/mL IL-4 for 10 min. The source says: Cryopreserved Peripheral Blood Mononuclear Cells (PBMC) are from AllCells. Recombinant Human IL-4 and IL-6 are from Peprotech. Mouse monoclonal anti-STAT3 antibody, rabbit monoclonal anti-pY705-STAT3 antibody, rabbit monoclonal Anti-pY641-STAT6 antibody, and lysis buffer are from Cell Signaling Technology (CST). Mouse monoclonal anti-STAT6 antibody is from BioLegend. Assay plates, blocker, and anti-rabbit secondary antibody are from Meso Scale Discovery (MSD).
Cryopreserved PBMCs were thawed out and allowed to recover overnight in IMDM+10% heat-inactivated FBS prior to plating 50,000 (STAT3) or 25,000 (STAT6) cells per well in 96-well U-bottom tissue culture plates. Cells were treated with compound for 3 hrs, then stimulated with 10 ng/mL IL-6 (STAT3) or 1 ng/mL IL-4 (STAT6) for 10 min. Cells were then spun down and washed with ice-cold PBS prior to lysing the cell pellet with 1× lysis buffer (CST) with 1×HALT protease and phosphatase inhibitor cocktail (Thermo). Lysates were transferred to and incubated overnight at 4° C. with shaking in QuickPlex 96-well high bind assay plates (MSD) pre-coated overnight with 30 μL per well of 0.6 μg/mL mouse monoclonal anti-STAT3 antibody (STAT3) or 2 μg/mL mouse monoclonal anti-STAT6 antibody (STAT6) in 1×PBS, and pre-blocked for 1 hour with 3% Blocker-A (MSD). Captured protein in the assay plates were then washed and probed with 25 μL per well of 0.25 μg/ml rabbit monoclonal anti-pY705-STAT3 antibody (STAT3) or […] rabbit monoclonal Anti-pY641-STAT6 antibody (STAT6) in 1% Blocker-A for 1 hour at room temperature with shaking, then washed and probed with 25 ul per well of 1 ug/ml Sulfo-TAG Labeled Goat Anti-Rabbit Antibody (MSD) in 1% Blocker-A for 1 hour at room temperature with shaking. Assay plates were then washed and 150 μL of 1× Read Buffer-T (MSD) was added to each well prior to reading on an SQ120 MSD Plate Reader. Assay signal from each sample was subtracted by the signal from unstimulated control wells and normalized to DMSO control wells. IC50 values were calculated using Graph Pad Prism Dose-Response Nonlinear Regression with variable slope. For both pSTAT3 and pSTAT6 A=≤100 nM; B=>100-1000 nM; C=>1000-3000 nM; and D=>3 μM.
Consider `CCCOC(=O)[C@H](C)NP(=O)(Oc1ccccc1)C(F)c1ccc2ccc(C(=O)N[C@H]3CN(C(=O)c4noc5c4CCCC5)CC[C@H]4CC[C@@H](C(=O)N5CCOCC5)N4C3=O)cc2c1` (stereo partly drawn) [Compound 425, propyl ((fluoro(7-(((5S,8S,10aR)-8-(morpholine-4-carbonyl)-6-oxo-3-(4,5,6,7-tetrahydro-benzo[d]isoxazole-3-carbonyl)decahydropyrrolo [1,2-a][1,5]diazocin-5-yl)carbamoyl)naphthalen-2-yl)methyl) (phenoxy)phosphoryl)-L-alaninate], for which the IC50 was 1000 to 3000 nM.
The value for `CCCOC(=O)[C@H](C)NP(=O)(Oc1ccccc1)C(F)c1ccc2ccc(C(=O)N[C@H]3CN(C(=O)c4cc5ncccn5n4)CC[C@H]4CC[C@@H](C(=O)N5CCOCC5)N4C3=O)cc2c1` (stereo partly drawn) [Compound 426, propyl ((fluoro(7-(((5S,8S,10aR)-8-(morpholine-4-carbonyl)-6-oxo-3-(pyrazolo[1,5-a]pyrimidine-2-carbonyl)decahydro-pyrrolo [1,2-a][1,5]diazocin-5-yl)carbamoyl)naphthalen-2-yl)methyl) (phenoxy)phosphoryl)-L-alaninate] was over 3000 nM; that for `CCCOC(=O)[C@H](C)NP(=O)(Oc1ccccc1)C(F)c1ccc2ccc(C(=O)N[C@H]3CN(S(=O)(=O)CCC)CC[C@H]4CC[C@@H](C(=O)N5CCOCC5)N4C3=O)cc2c1` (stereo partly drawn) [Compound 427, propyl ((fluoro(7-(((5S,8S,10aR)-8-(morpholine-4-carbonyl)-6-oxo-3-(propylsulfonyl)decahydro-pyrrolo [1,2-a][1,5]diazocin-5-yl)carbamoyl)naphthalen-2-yl)methyl) (phenoxy)phosphoryl)-L-alaninate] was over 3000 nM.
For `CCCOC(=O)[C@H](C)NP(=O)(Oc1ccccc1)C(F)c1ccc2ccc(C(=O)N[C@H]3CN(C(=O)c4noc5ccc(OC)cc45)CC[C@H]4CC[C@@H](C(=O)N5CCOCC5)N4C3=O)cc2c1` (stereo partly drawn) [Compound 428, propyl ((fluoro(7-(((5S,8S,10aR)-3-(5-methoxybenzo [d]isoxazole-3-carbonyl)-8-(morpholine-4-carbonyl)-6-oxodecahydro-pyrrolo [1,2-a][1,5]diazocin-5-yl)carbamoyl)naphthalen-2-yl)methyl) (phenoxy)phosphoryl)-L-alaninate], the IC50 was 100 to 1000 nM.
The value for `CCCOC(=O)[C@H](C)NP(=O)(Oc1ccccc1)C(F)c1ccc2ccc(C(=O)N[C@H]3CN(C(=O)c4ncn5c4CCCC5)CC[C@H]4CC[C@@H](C(=O)N5CCOCC5)N4C3=O)cc2c1` (stereo partly drawn) [Compound 429, propyl ((fluoro(7-(((5S,8S,10aR)-8-(morpholine-4-carbonyl)-6-oxo-3-(5,6,7,8-tetrahydro-imidazo [1,5-a]pyridine-1-carbonyl)decahydropyrrolo [1,2-a][1,5]diazocin-5-yl)carbamoyl)naphthalen-2-yl)methyl) (phenoxy)phosphoryl)-L-alaninate] was over 3000 nM; that for `CCCOC(=O)[C@H](C)NP(=O)(Oc1ccccc1)C(F)c1ccc2ccc(C(=O)N[C@H]3CN(C(=O)c4noc5ccc(Cl)cc45)CC[C@H]4CC[C@@H](C(=O)N5CCOCC5)N4C3=O)cc2c1` (stereo partly drawn) [Compound 430, propyl (((7-(((5S,8S,10aR)-3-(5-chlorobenzo[d]isoxazole-3-carbonyl)-8-(morpholine-4-carbonyl)-6-oxodecahydro-pyrrolo [1,2-a][1,5]diazocin-5-yl)carbamoyl)naphthalen-2-yl)fluoromethyl) (phenoxy)phosphoryl)-L-alaninate] was at most 100 nM; that for `Cc1ccc2[nH]nc(C(=O)N3CC[C@H]4CC[C@@H](C(=O)N5C[C@H](c6cc[nH]c(=O)c6)CC56CC6)N4C(=O)[C@@H](NC(=O)c4ccc5ccc(C(F)(F)P(=O)(OCCSC(=O)CC(C)C)OCCSC(=O)CC(C)C)cc5c4)C3)c2c1` [Compound 431, S,S′-((((difluoro(7-(((5S,8S,10aR)-3-(5-methyl-1H-indazole-3-carbonyl)-6-oxo-8-(6-(2-oxo-1,2-dihydropyridin-4-y1)-4-azaspiro[2.4]heptane-4-carbonyl)dec-ahydropyrrolo [1,2-a][1,5]diazocin-5-yl)carbamoyl)naphthalen-2-yl)methyl)phosphoryl)bis(oxy))bis(ethane-2,1-diyl)) bis(3-methylbutane thioate)] was at most 100 nM.
The value for `Cc1ccc2[nH]nc(C(=O)N3CC[C@H]4CC[C@@H](C(=O)N5CC(c6cc[nH]c(=O)c6)CC56CC6)N4C(=O)[C@@H](NC(=O)c4ccc5ccc(C(F)(F)P(=O)(OCCSC(=O)C(C)(C)C)OCCSC(=O)C(C)(C)C)cc5c4)C3)c2c1` (stereo partly drawn) [Compound 432, S,S′-((((difluoro(7 (((5S,8S,10aR)-3-(5-methyl-1H-indazole-3-carbonyl)-6-oxo-8-(6-(2-oxo-1,2-dihydro-pyridin-4-yl)-4-azaspiro [2.4]heptane-4-carbonyl)dec-ahydropyrrolo [1,2a][1,5]diazocin-5-yl)carbamoyl)naphthalen-2-yl)methyl)phosphoryl)bis(oxy))bis (ethane-2,1-diyl))bis(2,2-dimethylpro-panethioate)] was at most 100 nM; that for `Cc1ccc2onc(C(=O)N3CC[C@H]4CC[C@@H](C(=O)N5C[C@H](c6cc[nH]c(=O)c6)CC56CC6)N4C(=O)[C@@H](NC(=O)c4ccc5ccc(C(F)(F)P(=O)(OCCSC(=O)C(C)(C)C)OCCSC(=O)C(C)(C)C)cc5c4)C3)c2c1` [Compound 434, S,S′-((((difluoro(7 (((5S,8S,10aR)-3-(5-methylbenzo [d]isoxazole-3-carbonyl)-6-oxo-8-((S)-6-(2-oxo-1,2-dihydropyridin-4-yl)-4-azaspiro[2.4]heptane-4-carbonyl)decahydro-pyrrolo [1,2-a][1,5]diazocin-5-yl)carbamoyl)naphthalen-2-yl)methyl)phosphoryl)bis (oxy))bis (ethane-2,1-diyl)) bis(2,2-dimethyl-propanethioate)] was at most 100 nM.
Take `Cc1ccc2onc(C(=O)N3CC[C@H]4CC[C@@H](C(=O)N5C[C@@H](c6cc[nH]c(=O)c6)CC56CC6)N4C(=O)[C@@H](NC(=O)c4ccc5ccc(C(F)(F)P(=O)(OCCSC(=O)C(C)(C)C)OCCSC(=O)C(C)(C)C)cc5c4)C3)c2c1` [Compound 435, S,S′-((((difluoro(7 (((5S,8S,10aR)-3-(5-methylbenzo [d]isoxazole-3-carbonyl)-6-oxo-8-((R)-6-(2-oxo-1,2-dihydro-pyridin-4-yl)-4-azaspiro[2.4]heptane-4-carbonyl)decahydro-pyrrolo[1,2-a] [1,5]diazocin-5-yl)carbamoyl)naphthalen-2-yl)methyl)phosphoryl)bis(oxy))bis (ethane-2,1-diyl))bis(2,2-dimethyl-propanethioate)]: the IC50 is at most 100 nM.
The value for `Cc1ccc2onc(C(=O)N3CC[C@H]4CC[C@@H](C(=O)N5C[C@@H](c6ccn(C)c(=O)c6)CC56CC6)N4C(=O)[C@@H](NC(=O)c4ccc5ccc(C(F)(F)P(=O)(OCCSC(=O)C(C)(C)C)OCCSC(=O)C(C)(C)C)cc5c4)C3)c2c1` [Compound 436, S,S′-((((difluoro(7-(((5S,8S,10aR)-8-((R)-6-(1-methyl-2-oxo-1,2-dihydropyridin-4-yl)-4-azaspiro[2.4]heptane-4-carbonyl)-3-(5-methylbenzo [d]isoxazole-3-carbonyl)-6-oxodeca-hydropyrrolo [1,2-a][1,5]diazocin-5-yl)carbamoyl)naphthalen-2-yl)methyl)phosphoryl)bis (oxy))bis (ethane-2,1-diyl))bis(2,2-dimethyl-propanethioate)] was at most 100 nM.
The value for `Cc1ccc2onc(C(=O)N3CC[C@H]4CC[C@@H](C(=O)N5C[C@H](c6ccn(C)c(=O)c6)CC56CC6)N4C(=O)[C@@H](NC(=O)c4ccc5ccc(C(F)(F)P(=O)(OCCSC(=O)C(C)(C)C)OCCSC(=O)C(C)(C)C)cc5c4)C3)c2c1` [Compound 437, S,S′-((((difluoro(7 (((5S,8S,10aR)-8-((S)-6-(1-methyl-2-oxo-1,2-dihydropyridin-4-yl)-4-azaspiro[2.4]heptane-4-carbonyl)-3-(5-methylbenzo [d]isoxazole-3-carbonyl)-6-oxodeca-hydropyrrolo [1,2-a][1,5]diazocin-5-yl)carbamoyl)naphthalen-2-yl)methyl)phosphoryl)bis (oxy))bis (ethane-2,1-diyl))bis(2,2-dimethyl-propanethioate)] was at most 100 nM.

As usually defined, the IC50 is the concentration that gives 50% inhibition. A low value points to inhibition by little substance.
